Assay results as given in US4159373A, “7-Acyl-3-(sulfonic acid and sulfamoyl substituted tetrazolyl thiomethyl) cephalosporins” (SmithKline Corporation, priority 1978, dated 1979).
In brackets after ≈: the same amount, converted by molar mass. Read-outs that look alike come from different tables or passages of the source. One block for each molecule: values may come before it.

Assays:
[1] = tested on: E. coli SK 12140; assay: MIC in vitro; assay type: cell-based; settings: Escherichia coli
Description: (§1) The compounds of Formula I have exceptional antibacterial activity against both Gram-positive and Gram-negative organisms. Minimum inhibitory concentrations (MIC's) ranged from 0.2 to <200 μg./ml. in in vitro testing.

[2] = tested on: Proteus morgani 179; assay: MIC in vitro; assay type: cell-based
Description: as §1

[3] = tested on: S. aureus HH 127; assay: MIC in vitro; assay type: cell-based; settings: Staphylococcus aureus
Description: as §1

[4] = tested on: Strep. Faecalis HH 34358; assay: MIC in vitro; assay type: cell-based; settings: Enterococcus faecalis
Description: as §1

[5] = tested on: Kleb. pneumo. SK 1200; assay: MIC in vitro; assay type: cell-based, Kleb. pneumoniae; settings: Klebsiella pneumoniae
Description: as §1

[6] = tested on: Kleb. pneumo. SK 4200; assay: MIC in vitro; assay type: cell-based, Kleb. pneumoniae; settings: Klebsiella pneumoniae
Description: as §1

[7] = tested on: Psuedo. sp. HH 63; assay: MIC in vitro; assay type: cell-based, Pseudo. aeruginosa; settings: Pseudomonas aeruginosa
Description: as §1

[8] = tested on: Entero. aerog. ATCC 13048; assay: MIC in vitro; assay type: cell-based, Enterobacter aerogenes; settings: Klebsiella aerogenes
Description: as §1

[9] = tested on: Serra. marc ATCC 13880; assay: MIC in vitro; assay type: cell-based, Serratia marcescens; settings: Serratia marcescens
Description: as §1

[10] = tested on: Staph. aureus 671; assay: MIC in vitro; assay type: cell-based; settings: Staphylococcus aureus
[11] = tested on: Staph. aureus 674; assay: MIC in vitro; assay type: cell-based
[12] = tested on: E. coli 804; assay: MIC in vitro; assay type: cell-based; settings: Escherichia coli, read-out: MIC
[13] = tested on: Kleb. pneumoniae 982; assay: MIC in vitro; assay type: cell-based; settings: Klebsiella pneumoniae, read-out: MIC
[14] = tested on: Pseudo. aeruginosa 647; assay: MIC in vitro; assay type: cell-based; settings: Pseudomonas aeruginosa, read-out: MIC
[15] = tested on: Proteus mirabilis 444; assay: MIC in vitro; assay type: cell-based; settings: read-out: MIC
[16] = tested on: Enterobacter cloacae 921; assay: MIC in vitro; assay type: cell-based
[17] = tested on: E. coli 12140; assay: In vivo mouse protection, E. coli 12140
[18] = tested on: Kleb. pneumo. 4200; assay: In vivo mouse protection, Kleb. pneumo. 4200; settings: sc
[19] = tested on: E. coli HH 33779; assay: MIC in vitro; assay type: cell-based; settings: Escherichia coli, HH33779, Table 1; E. coli HH 33779; read-out: MIC in vitro
Description: as §1

[20] = tested on: S. aureus SK 23390; assay: MIC in vitro; assay type: cell-based; settings: Staphylococcus aureus, SK23390, Table 1; S. aureus SK 23390; read-out: MIC in vitro
Description: as §1

[21] = tested on: S. villaluz; assay: MIC in vitro; assay type: cell-based; settings: Table 1
Description: as §1

[22] = tested on: Salmonella ATCC 12176; assay: MIC in vitro; assay type: cell-based; settings: Salmonella, ATCC12176, Table 1, read-out: MIC in vitro
Description: as §1

[23] = tested on: shigella HH 117; assay: MIC in vitro; assay type: cell-based; settings: HH117; Table 1; shigella HH 117; read-out: MIC in vitro
Description: as §1

[24] = tested on: Entero. cloacae HH 31254; assay: MIC in vitro; assay type: cell-based; settings: Enterobacter cloacae
[25] = SK12140, read-out: MIC in vitro, Table 1, E. coli SK 12140
[26] = Table 1, read-out: MIC in vitro
[27] = HH127, Table 1, S. aureus HH 127, read-out: MIC in vitro
[28] = Table 1, Strep. Faecalis HH 34358, read-out: MIC in vitro
[29] = Table 1, Kleb. pneumo. SK 1200, read-out: MIC in vitro
[30] = Table 1, Kleb. pneumo. SK 4200, read-out: MIC in vitro
[31] = Table 1, Psuedo. sp. HH 63, read-out: MIC in vitro
[32] = ATCC13048, Table 1, Entero. aerog. ATCC 13048, read-out: MIC in vitro
[33] = ATCC13880, Table 1, Serra. marc ATCC 13880, read-out: MIC in vitro
[34] = Escherichia coli, 12140, sc, Table 2, E. coli 12140, s.c., read-out: ED50 in vivo
[35] = Table 2, Kleb. pneumo. 4200, s.c., read-out: ED50 in vivo

- MIC ([1]; SK12140, Example 54 table, E. coli SK&F 12140, read-out: MIC): 6.3 mg/L (≈ 11.3 µM)
- MIC ([2]; Example 54 table, read-out: MIC): > 100 mg/L
- MIC ([3]; HH127, Example 54 table, Staph. aureus HH 127, read-out: MIC): 6.3 mg/L (≈ 11.3 µM)
- MIC ([4]; Example 54 table, Strep. faecalis HH 34358, read-out: MIC): 100 mg/L (≈ 180 µM)
- MIC ([5]; Example 54 table, Kleb. pneumoniae SK&F 1200, read-out: MIC): 0.4 mg/L (≈ 0.72 µM)
- MIC ([6]; Example 54 table, Kleb. pneumoniae SK&F 4200, read-out: MIC): 0.4 mg/L (≈ 0.72 µM)
- MIC ([7]; Example 54 table, Pseudo. aeruginosa HH 63, read-out: MIC): > 100 mg/L
- MIC ([8]; ATCC13048, Example 54 table, Enterobacter aerogenes 13048, read-out: MIC): > 100 mg/L
- MIC ([9]; ATCC13880, Example 54 table, Serratia marcescens ATCC 13880, read-out: MIC): > 100 mg/L
- MIC ([10]; Example 54 table): 3.1 mg/L (≈ 5.58 µM)
- MIC ([11]; Staphylococcus aureus, 674, Example 54 table): 3.1 mg/L (≈ 5.58 µM)
- MIC ([12]; Example 54 table): > 100 mg/L
- MIC ([13]; Example 54 table): > 100 mg/L
- MIC ([14]; Example 54 table): > 100 mg/L
- MIC ([15]; Example 54 table): 1.6 mg/L (≈ 2.88 µM)
- MIC ([16]; Enterobacter cloacae, 921, Example 54 table): 100 mg/L (≈ 180 µM)
Structure (SMILES): NCc1ccc(CC(=O)NC2C(=O)N3C(C(=O)O)=C(CSc4nnnn4CS(=O)(=O)O)CSC23)cc1 (centres unmarked) [Example 54, 7-(4-Aminomethylphenylacetamido)-3-(1-sulfomethyltetrazol-5-ylthiomethyl)-3-cephem-4-carboxylic acid]
- ED50 ([17]; Escherichia coli, 12140, sc, Example 54, s.c., E. coli SKF 12140, read-out: ED50): 8.7 mg/kg
- ED50 ([18]; Example 54, s.c., K. pneumo. SKF 4200, read-out: ED50): 0.7 mg/kg

Structure (SMILES): O=C(Cn1cnnn1)NC1C(=O)N2C(C(=O)O)=C(CSc3nnnn3CS(=O)(=O)O)CSC12 (centres unmarked) [X, 7-(1-tetrazolylacetamido)-3-(1-sulfomethyltetrazol-5-ylthiomethyl)-3-cephem-4-carboxylic acid]
- MIC [19]: 0.8 mg/L (≈ 1.54 µM)
- MIC [1, 25]: 0.4 mg/L (≈ 0.771 µM)
- MIC [2, 26]: 200 mg/L (≈ 386 µM)
- MIC [3, 27]: 1.6 mg/L (≈ 3.09 µM)
- MIC [20]: 1.6 mg/L (≈ 3.09 µM)
- MIC [21]: > 200 mg/L
- MIC [22]: 0.4 mg/L (≈ 0.771 µM)
- MIC [4, 28]: 50 mg/L (≈ 96.4 µM)
- MIC [23]: 0.2 mg/L (≈ 0.386 µM)
- MIC [5, 29]: 0.2 mg/L (≈ 0.386 µM)
- MIC [6, 30]: 0.4 mg/L (≈ 0.771 µM)
- MIC [7, 31]: > 200 mg/L
- MIC [8, 32]: 3.1 mg/L (≈ 5.98 µM)
- MIC [9, 33]: 200 mg/L (≈ 386 µM)
- MIC ([24]; HH31254, read-out: MIC in vitro, Table 1): 0.8 mg/L (≈ 1.54 µM)
- ED50 ([17]; Escherichia coli, 12140, po, Table 2, E. coli 12140, p.o., read-out: ED50 in vivo): 50 mg/kg
- ED50 [17, 34]: 1.56 mg/kg
- ED50 [18, 35]: 0.64 mg/kg

- MIC ([1]; SK12140, Example 55 table, E. coli SK&F 12140, read-out: MIC): 1.6 mg/L (≈ 2.88 µM)
- MIC ([2]; Example 55 table, read-out: MIC): > 100 mg/L
- MIC ([3]; Example 55 table, Staph. aureus HH127, read-out: MIC): 1.6 mg/L (≈ 2.88 µM)
- MIC ([4]; Example 55 table, Strep. faecalis HH 34358, read-out: MIC): 100 mg/L (≈ 180 µM)
- MIC ([5]; Example 55 table, Kleb. pneumoniae SK&F 1200, read-out: MIC): ≤ 0.1 mg/L
- MIC ([6]; Example 55 table, Kleb. pneumoniae SK&F 4200, read-out: MIC): 0.2 mg/L (≈ 0.36 µM)
- MIC ([7]; Example 55 table, Pseudo. aeruginosa HH63, read-out: MIC): > 100 mg/L
- MIC ([8]; ATCC13048, Example 55 table, Enterobacter aerogenes 13048, read-out: MIC): 50 mg/L (≈ 90 µM)
- MIC ([9]; ATCC13880, Example 55 table, Serratia marcescens ATCC 13880, read-out: MIC): > 100 mg/L
- MIC ([10]; Example 55 table): 6.3 mg/L (≈ 11.3 µM)
- MIC ([11]; Staphylococcus aureus, 674, Example 55 table): 1.6 mg/L (≈ 2.88 µM)
- MIC ([12]; Example 55 table): > 100 mg/L
- MIC ([13]; Example 55 table): > 100 mg/L
- MIC ([14]; Example 55 table): > 100 mg/L
- MIC ([15]; Example 55 table): 0.4 mg/L (≈ 0.72 µM)
- MIC ([16]; Enterobacter cloacae, 921, Example 55 table): 25 mg/L (≈ 45 µM)
Structure (SMILES): NCc1cccc(CC(=O)NC2C(=O)N3C(C(=O)O)=C(CSc4nnnn4CS(=O)(=O)O)CSC23)c1 (centres unmarked) [Example 55, 7-(3-Aminomethylphenylacetamido)-3-(1-sulfomethyltetrazol-5-ylthiomethyl)-3-cephem-4-carboxylic acid]
- ED50 ([17]; Escherichia coli, 12140, sc, Example 55, s.c., E. coli SKF 12140, read-out: ED50): 1.82 mg/kg
- ED50 ([18]; Example 55, s.c., K. pneumo. SK&F 4200, read-out: ED50): < 0.19 mg/kg

Structure (SMILES): O=C(Cc1cccs1)NC1C(=O)N2C(C(=O)O)=C(CSc3nnnn3CCS(=O)(=O)O)CS[C@H]12 (some centres unmarked) [VI, 7-(2-Thienylacetamido)-3-[1-(2-sulfoethyl)tetrazol-5-ylthiomethyl]-3-cephem-4-carboxylic acid]
- MIC [19]: 12.5 mg/L (≈ 22.9 µM)
- MIC [1, 25]: 3.1 mg/L (≈ 5.67 µM)
- MIC [2, 26]: > 200 mg/L
- MIC [3, 27]: 1.6 mg/L (≈ 2.93 µM)
- MIC [20]: 0.8 mg/L (≈ 1.46 µM)
- MIC [21]: 3.1 mg/L (≈ 5.67 µM)
- MIC [22]: 0.8 mg/L (≈ 1.46 µM)
- MIC [4, 28]: 50 mg/L (≈ 91.5 µM)
- MIC [23]: 3.1 mg/L (≈ 5.67 µM)
- MIC [5, 29]: 0.8 mg/L (≈ 1.46 µM)
- MIC [6, 30]: 1.6 mg/L (≈ 2.93 µM)
- MIC [7, 31]: > 200 mg/L
- MIC [8, 32]: 25 mg/L (≈ 45.7 µM)
- MIC [9, 33]: > 200 mg/L
- MIC ([24]; HH31254, Table 1, read-out: MIC in vitro): 6.3 mg/L (≈ 11.5 µM)
- ED50 [17, 34]: 4.4 mg/kg
- ED50 [18, 35]: 1.56 mg/kg
